16 molecules from patent publication US8877707B2, “Inhibitors of HCV NS5A” (Presidio Pharmaceuticals, Inc., priority 2010, dated 2014) can be followed below.

Some results are limits rather than exact numbers.

This assay concerns HCV genotype 1b replicon in Huh 7 cells. Kind of assay: HCV replicon assay (1b_Huh-Luc/Neo-ET cell line, luciferase readout). The assay is classed as cell-based. The note with it: Hepatitis C virus; Table 1; genotype 1b replicon, Huh 7 cells, 72 h, luciferase; read-out: Inhibition of HCV genotype 1b. The method, then:
Biological activity of the compounds of the invention was determined using an HCV replicon assay. The 1b_Huh-Luc/Neo-ET cell line persistently expressing a bicistronic genotype 1b replicon in Huh 7 cells was obtained from ReBLikon GMBH. This cell line was used to test compound inhibition using luciferase enzyme activity readout as a measurement of compound inhibition of replicon levels.
On Day 1 (the day after plating), each compound is added in triplicate to the cells. Plates incubated for 72 h prior to running the luciferase assay. Enzyme activity was measured using a Bright-Glo Kit (cat. number E2620) manufactured by Promega Corporation. The following equation was used to generate a percent control value for each compound. % Control=(Average Compound Value/Average Control)*100
The EC50 value was determined using GraphPad Prism and the following equation: Y=Bottom+(Top−Bottom)/(1+10^((Log IC50−X)*HillSlope))
EC50 values of compounds are repeated several times in the replicon assay.
(In general: A replicon is a self-replicating genome or part of one, used to study replication in cells.)
For `COC(=O)N[C@H](C(=O)N1CCC[C@H]1c1ncc(-c2ccc(-c3ccc4cc(-c5c[nH]c([C@@H]6CCCN6C(=O)[C@H](NC(=O)NC6CC6)c6ccccc6)n5)ccc4c3)cc2)[nH]1)C(C)C` [compound 29], the EC50 is less than 1 nM.

As for `COC(=O)N[C@H](C(=O)N1CCC[C@H]1c1nc(-c2ccc3nc(-c4ccc(-c5cnc([C@@H]6CCCN6C(=O)[C@H](NC(=O)OC(C)(C)C)c6ccccc6)[nH]5)cc4)ccc3c2)c[nH]1)C(C)C` [compound 30], the EC50 is less than 1 nM.

Turning to `CNC(=O)N[C@@H](C(=O)N1CCC[C@H]1c1ncc(-c2ccc(-c3ccc4cc(-c5c[nH]c([C@@H]6CCCN6C(=O)[C@@H](NC(=O)OC)C(C)C)n5)ccc4n3)cc2)[nH]1)c1ccccc1` [compound 31], the EC50 was less than 1 nM.

On to `COC(=O)N[C@H](C(=O)N1CCC[C@H]1c1nc(-c2cnc3cc(-c4ccc(-c5cnc([C@@H]6CCCN6C(=O)[C@H](NC(=O)OC)c6ccccc6)[nH]5)cc4)ccc3c2)c[nH]1)C(C)C` [compound 32], for which the EC50 is less than 1 nM.

With `CCNC(=O)N[C@@H](C(=O)N1CCC[C@H]1c1ncc(-c2ccc(-c3ccc4cc(-c5c[nH]c([C@@H]6CCCN6C(=O)[C@@H](NC(=O)OC)C(C)C)n5)ccc4n3)cc2)[nH]1)c1ccccc1` [compound 33], the EC50 was less than 1 nM.

With `COC(=O)N[C@H](C(=O)N1CCC[C@H]1c1nc(-c2ccc3nc(-c4ccc(-c5cnc([C@@H]6CCCN6C(=O)[C@H](NC(=O)NC6CC6)c6ccccc6)[nH]5)cc4)ccc3c2)c[nH]1)C(C)C` [compound 34], the EC50 is less than 1 nM.

Consider `COC(=O)N[C@H](C(=O)N1CCC[C@H]1c1ncc(-c2ccc(-c3ccc4cc(-c5c[nH]c([C@@H]6CCCN6C(=O)[C@H](NC(=O)OC(C)(C)C)c6ccccc6)n5)ccc4n3)cc2)[nH]1)C(C)C` [compound 35], for which the EC50 is less than 1 nM.

For `CNC(=O)N[C@@H](C(=O)N1CCC[C@H]1c1nc(-c2ccc3nc(-c4ccc(-c5cnc([C@@H]6CCCN6C(=O)[C@@H](NC(=O)OC)C(C)C)[nH]5)cc4)ccc3c2)c[nH]1)c1ccccc1` [compound 36], the EC50 is less than 1 nM.

Consider `CCNC(=O)N[C@@H](C(=O)N1CCC[C@H]1c1nc(-c2ccc3nc(-c4ccc(-c5cnc([C@@H]6CCCN6C(=O)[C@@H](NC(=O)OC)C(C)C)[nH]5)cc4)ccc3c2)c[nH]1)c1ccccc1` [compound 37], for which the EC50 is less than 1 nM.

For `COC(=O)N[C@H](C(=O)N1CCC[C@H]1c1ncc(-c2ccc(-c3ccc4cc(-c5c[nH]c([C@@H]6CCCN6C(=O)[C@H](NC(=O)NC6CC6)c6ccccc6)n5)ccc4n3)cc2)[nH]1)C(C)C` [compound 38], the EC50 is less than 1 nM.

For the molecule `COC(=O)N[C@H](C(=O)N1CCC[C@H]1c1ncc(-c2ccc(-c3ccc4cc(-c5c[nH]c([C@@H]6CCCN6C(=O)[C@@H](NC(=O)OC)C6CCOCC6)n5)ccc4n3)cc2)[nH]1)C(C)C` [compound 39], the EC50 is less than 1 nM.

On to `COC(=O)N[C@H](C(=O)N1CCC[C@H]1c1ncc(-c2ccc(-c3ccc4cc(-c5c[nH]c([C@@H]6CCCN6C(=O)[C@@H](NC(=O)OC)[C@@H](C)OC)n5)ccc4n3)cc2)[nH]1)C(C)C` [compound 40], for which the EC50 is less than 1 nM.

Take `COC(=O)N[C@@H](C)C(=O)N1CCC[C@H]1c1nc(-c2ccc3nc(-c4ccc(-c5cnc([C@@H]6CCCN6C(=O)[C@@H](NC(=O)OC)C(C)C)[nH]5)cc4)ccc3c2)c[nH]1` [compound 41]: the EC50 was less than 1 nM.

Consider `COC(=O)N[C@H](C(=O)N1CCC[C@H]1c1nc(-c2ccc3nc(-c4ccc(-c5cnc([C@@H]6CCCN6C(=O)[C@@H](NC(=O)OC)C6CCOCC6)[nH]5)cc4)ccc3c2)c[nH]1)C(C)C` [compound 42], for which the EC50 is less than 1 nM.

With `COC(=O)N[C@H](C(=O)N1CCC[C@H]1c1nc(-c2ccc3nc(-c4ccc(-c5cnc([C@@H]6CCCN6C(=O)[C@@H](NC(=O)OC)[C@@H](C)OC)[nH]5)cc4)ccc3c2)c[nH]1)C(C)C` [compound 43], the EC50 was less than 1 nM.

Turning to `COC(=O)N[C@@H](C)C(=O)N1CCC[C@H]1c1ncc(-c2ccc(-c3ccc4cc(-c5c[nH]c([C@@H]6CCCN6C(=O)[C@@H](NC(=O)OC)C(C)C)n5)ccc4n3)cc2)[nH]1` [compound 44], the EC50 is less than 1 nM.
